Source: patent publication US10906884B2, “Benzodiazepine derivatives as CCK2/gastrin receptor antagonists” (Trio Medicines Ltd, priority 2014, dated 2021)
Converted amounts (≈) assume the structure as drawn. Where two headings read alike, the source gives them in different places.

Legend:
[1] = Aqueous solubility study in Britton-Robinson's buffer (HPLC-UV); type: physicochemical; conditions: ambient temperature overnight; for solubility: thermodynamic from solid
Protocol: The test compound (2.5 mg of solid; n=1) was weighed in a clear glass vial and Britton-Robinson's buffer (0.5 mL) was added (pH 2.01, pH 3.06, pH 4.06, pH 5.08, pH 5.99, pH 6.98, and pH 8.16). The solution was agitated at ambient temperature overnight using a vial roller system, and then filtered (0.45 μm pore size; without pre-saturation). Two aliquots (50 μL) were sampled from the filtrate and diluted with one volume of 0.1 N hydrochloric acid and methanol (1:1 v/v) before analysis by HPLC-UV. A standard was prepared in DMSO at 10 mg/mL (n=1) which was then diluted 10-fold in 0.1 N hydrochloric acid and methanol (1:1 v/v) to give a 1 mg/mL solution. The concentration of test compound in the filtrate was quantified relative to the concentration standard.
Analysis was done using a gradient HPLC-UV system with a total cycle time of 6 min. The UV detection between 220 nm and 300 nm was done using a photodiode array detector.
The values given in the table above are for crystalline YF476 and (TR2-A) and amorphous (TR1).

[2] = Pharmacokinetics in healthy subjects, single oral dose, API in capsule; conditions: human, in vivo
Protocol: In an initial study, healthy volunteers took a single oral dose of 100 mg (TR2) as an active pharmaceutical ingredient (API) in a capsule. Plasma concentrations were measured.
In further clinical studies, healthy volunteers (n=8) took single oral doses of 5, 15, 50 and 100 mg (TR2) as an active pharmaceutical ingredient (API) in a capsule. (Capsule formulation TR2 powder (API) in a hard gelatin capsule, no excipients, no processing). Plasma concentrations were measured.
Healthy volunteers (n=8) took single oral doses of 5, 15, 25 and 50 mg (TR2-A) as API in a capsule (TR2-A (crystalline) in hard gelatin capsule with no excipient, no processing of the API). Plasma concentrations of (TR2) and (TR2-A) were measured. The area under the curve of plasma concentrations of (TR2) after a single oral dose of 50 mg of (TR2-A) API (AUC0-24 h=212.5) was about the same as that observed for a similar formulation of a single oral dose of (TR2) 100 mg (AUC0-24 h=241.5).

CCK2 (human) [3] = biological target: T1, CCK2 (human) (Homo sapiens, UniProt P32239); conditions: Semple et al. 1997; cited from earlier work
T1 sequence (P32239 1-447): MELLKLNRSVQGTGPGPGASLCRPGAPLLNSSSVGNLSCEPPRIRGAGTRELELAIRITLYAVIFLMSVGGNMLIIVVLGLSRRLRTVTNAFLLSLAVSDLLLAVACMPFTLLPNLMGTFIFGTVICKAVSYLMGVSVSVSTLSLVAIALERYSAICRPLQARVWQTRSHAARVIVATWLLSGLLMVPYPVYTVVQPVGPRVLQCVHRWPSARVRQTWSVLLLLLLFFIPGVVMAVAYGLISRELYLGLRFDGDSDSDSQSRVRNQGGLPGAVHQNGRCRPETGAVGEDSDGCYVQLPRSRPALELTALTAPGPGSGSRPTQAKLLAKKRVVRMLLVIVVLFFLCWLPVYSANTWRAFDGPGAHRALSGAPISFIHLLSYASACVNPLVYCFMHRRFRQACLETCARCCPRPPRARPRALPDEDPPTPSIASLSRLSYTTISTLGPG

[4] = tested on: AGSGR cells (gastric adenocarcinoma cell line transfected with human gastrin/CCK2 receptor gene); assay: Sulphorhodamine-B (SRB) proliferation assay, G17-treated cells; type: cell-based; conditions: compound 100 nM, G17 10 nM
Protocol: The potency of (TR2) and (TR3) was tested in a sulphorhodamine-B (SRB) proliferation assay in a human gastric adenocarcinoma cell line stably transfected with the human gastrin/CCK2 receptor gene (AGSGR). SRB is a fluorescent dye that binds to proteins, so cells with a high rate of protein synthesis (proliferative cells) will show high levels of fluorescence in the SRB assay. […] (TR2) and (TR3) were compared with the positive controls YF476 and YM022.

CCK1 (human) = biological target: T2, CCK1 (human) (Homo sapiens, UniProt P32238); assay: CCK1 receptor functional assay (antagonist effect, cAMP, HTRF); type: cell-based; conditions: stimulus CCK-8s 300 nM, 10 min 37° C., CHO cells
T2 construct: expressed in transfected cells; host or cells: CHO cells
T2 sequence (P32238 1-428): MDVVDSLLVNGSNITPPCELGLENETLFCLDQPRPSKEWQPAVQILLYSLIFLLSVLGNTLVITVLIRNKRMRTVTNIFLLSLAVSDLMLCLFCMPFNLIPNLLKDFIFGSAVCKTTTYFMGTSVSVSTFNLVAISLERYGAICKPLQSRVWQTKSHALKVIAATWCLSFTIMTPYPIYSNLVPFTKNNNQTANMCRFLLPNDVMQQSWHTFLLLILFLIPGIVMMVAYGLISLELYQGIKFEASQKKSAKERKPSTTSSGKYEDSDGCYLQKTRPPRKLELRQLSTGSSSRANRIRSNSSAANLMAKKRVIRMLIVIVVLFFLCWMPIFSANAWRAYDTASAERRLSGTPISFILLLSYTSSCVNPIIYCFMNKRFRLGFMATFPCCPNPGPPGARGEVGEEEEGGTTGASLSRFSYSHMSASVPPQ
Text: (§1) (TR2) and (TR3) were compared with YF476 and YM022 in CCK1 and CCK2 receptor functional assays with the following assay criteria.
(§2) The potency of the antagonists is expressed as IC50, the concentration of antagonist that causes a half-maximum inhibition of the control agonist response. The affinity of the antagonist for the receptor is expressed as KB, the concentration of antagonist, which would occupy 50% of the receptors at equilibrium.

[5] = YF476 serum concentrations and bioavailability in healthy subjects (background); type: in vivo, human
Text: Bioavailability can be improved by preparing and administering a formulation of amorphous YF476, but this requires stabilisation such as in the form of a solid dispersion on hydroxypropyl methyl cellulose by spray-drying. Even with this processing, bioavailability of YF476 was still low. […] However, it would be beneficial to provide a CCK2/gastrin receptor antagonist where administration with food is not required.

CCK2 (human) [6] = biological target: T1, CCK2 (human); assay: CCK2 receptor functional assay (antagonist effect, cAMP, HTRF); type: cell-based; parameters: expressed in transfected cells; host or cells: CHO cells
Text: as §1, §2

[7] = tested on: pentagastrin-stimulated gastric acid secretion; assay: Pentagastrin-stimulated gastric acid secretion in conscious rats with a chronic gastric fistula; type: in vivo; conditions: Rattus norvegicus, sc; subcutaneous injection, conscious rats; read-out: ED50, inhibition of pentagastrin-stimulated gastric acid secretion
Protocol: The effect of subcutaneous injections of YF476, (TR2) and (TR3) on pentagastrin-stimulated gastric acid secretion was tested in conscious rats with a chronic gastric fistula.

rat brain CCK2 receptors = biological target: T3, rat brain CCK2 receptors (Rattus norvegicus, UniProt P30553); conditions: cited from earlier work
T3 construct: host or cells: rat brain
T3 sequence (P30553 1-452): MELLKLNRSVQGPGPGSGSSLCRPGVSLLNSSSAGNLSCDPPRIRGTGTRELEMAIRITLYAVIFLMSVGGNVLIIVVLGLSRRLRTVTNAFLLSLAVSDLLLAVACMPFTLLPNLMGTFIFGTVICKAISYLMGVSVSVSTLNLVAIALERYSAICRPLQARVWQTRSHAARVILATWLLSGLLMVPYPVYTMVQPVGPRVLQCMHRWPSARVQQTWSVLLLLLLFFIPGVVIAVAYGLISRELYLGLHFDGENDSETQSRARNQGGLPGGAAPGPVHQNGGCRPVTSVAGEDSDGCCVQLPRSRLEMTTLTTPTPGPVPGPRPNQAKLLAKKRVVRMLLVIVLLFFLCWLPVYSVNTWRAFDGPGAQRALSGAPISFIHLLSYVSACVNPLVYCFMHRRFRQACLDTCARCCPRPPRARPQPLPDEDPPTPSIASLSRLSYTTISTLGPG

[8] = cited from earlier work
[9] = pH 2.01, Britton-Robinson's buffer
[10] = pH 3.06, Britton-Robinson's buffer
[11] = pH 4.06, Britton-Robinson's buffer
[12] = pH 5.08, Britton-Robinson's buffer
[13] = pH 5.99, Britton-Robinson's buffer
[14] = pH 6.98, Britton-Robinson's buffer
[15] = pH 8.16, Britton-Robinson's buffer
[16] = aqueous buffer, pH 2.01, Britton-Robinson's buffer
[17] = aqueous buffer, pH 3.06, Britton-Robinson's buffer
[18] = aqueous buffer, pH 4.06, Britton-Robinson's buffer
[19] = aqueous buffer, pH 5.08, Britton-Robinson's buffer
[20] = aqueous buffer, pH 5.99, Britton-Robinson's buffer
[21] = aqueous buffer, pH 6.98, Britton-Robinson's buffer
[22] = aqueous buffer, pH 8.16, Britton-Robinson's buffer

Structure (SMILES)	Aqueous solubility [1, 9]	Aqueous solubility [1, 10]	Aqueous solubility [1, 11]	Aqueous solubility [1, 12]	Aqueous solubility [1, 13]	Aqueous solubility [1, 14]	Aqueous solubility [1, 15]	solubility [1, 16]	solubility [1, 17]	solubility [1, 18]	solubility [1, 19]	solubility [1, 20]	solubility [1, 21]	solubility [1, 22]	Inhibition of the anti-proliferative effects of G17 [4]	other results
CNc1cccc(NC(=O)N[C@@H]2N=C(c3ccccn3)c3ccccc3N(CC(=O)C(C)(C)COC(C)=O)C2=O)c1 [TR2-A amorphous]	5000 µg/mL	683 µg/mL	282 µg/mL	128 µg/mL	53.4 µg/mL	43 µg/mL	40.2 µg/mL									
CNc1cccc(NC(=O)N[C@@H]2N=C(c3ccccn3)c3ccccc3N(CC(=O)C(C)(C)COC(C)=O)C2=O)c1 [TR2-A, (R)-1-[1-(4-Acetoxy-3,3-dimethyl-2-oxo-butyl)-2-oxo-5-pyridin-2-yl-2,3-dihydro-1H-benzo[e][1,4]diazepin-3-yl]-3-(3-methylamino-phenyl)-urea]				56 µg/mL												AUC(0-t) ([2]; after single oral doses of (TR2-A), analyte TR2-A, read-out: AUC0-24 h of plasma concentrations of (TR2-A)): < 10 ng·h/mL; solubility ([1]; pH 2.01, aqueous buffer, pH 2.01, Britton-Robinson's buffer): 4190 µg/mL (≈ 7530 µM); solubility ([1]; pH 3.06, aqueous buffer, pH 3.06, Britton-Robinson's buffer): 730 µg/mL (≈ 1310 µM); solubility ([1]; pH 4.06, aqueous buffer, pH 4.06, Britton-Robinson's buffer): 218 µg/mL (≈ 392 µM); solubility ([1]; pH 5.99, aqueous buffer, pH 5.99, Britton-Robinson's buffer): 47.2 µg/mL (≈ 84.8 µM); solubility ([1]; pH 6.98, aqueous buffer, pH 6.98, Britton-Robinson's buffer): 51 µg/mL (≈ 91.6 µM); solubility ([1]; pH 8.16, aqueous buffer, pH 8.16, Britton-Robinson's buffer): 45.4 µg/mL (≈ 81.6 µM)
CNc1cccc(NC(=O)N[C@@H]2N=C(c3ccccn3)c3ccccc3N(CC(=O)C(C)(C)C)C2=O)c1 [YF476, reference compound]								2650 µg/mL (≈ 5320 µM)	99.7 µg/mL (≈ 200 µM)	5.9 µg/mL (≈ 11.8 µM)	1.4 µg/mL (≈ 2.81 µM)	1.3 µg/mL (≈ 2.61 µM)	1.4 µg/mL (≈ 2.81 µM)	1.5 µg/mL (≈ 3.01 µM)	completely inhibited	AUC ([2]; po, 100 mg): 198 ng·h/mL; AUC(0-t) ([2]; po, 100 mg): 81.3 ng·h/mL; More selective for CCK2 receptors than for CCK1 receptors (compared with YM022) (CCK2 (human) [3]): 5 fold; IC50 (CCK1 (human)): 160 nM; Increase of bioavailability by food [5]: 1.6 fold; Serum concentrations ([5]; crystalline form): extremely low and very variable; Selectivity IC50 (CCK1)/IC50 (CCK2) (CCK2 (human) [6]): 308; Selectivity KB (CCK1)/KB (CCK2) (CCK2 (human) [6]): 375; IC50 (CCK2 (human) [6]; stimulus CCK-8s 10 nM, 10 min 37° C., CHO cells, read-out: CCK2 IC50): 0.52 nM; Kb (CCK2 (human) [6]; stimulus CCK-8s 10 nM, 10 min 37° C., CHO cells, read-out: CCK2 KB): 0.064 nM; ED50 [7]: 0.012 µmol/kg
CNc1cccc(NC(=O)NC2N=C(c3ccccn3)c3ccccc3N(CC(=O)C(C)(C)CO)C2=O)c1 (racemic) [TR1, 1-[1-(4-Hydroxy-3,3-dimethyl-2-oxo-butyl)-2-oxo-5-pyridin-2-yl-2,3-dihydro-1H-1,4-benzodiazepin-3-yl]-3-(3-methylamino-phenyl)-urea]								5000 µg/mL (≈ 9720 µM)	645 µg/mL (≈ 1250 µM)	58.2 µg/mL (≈ 113 µM)	9.8 µg/mL (≈ 19 µM)	11.6 µg/mL (≈ 22.5 µM)	5.84 µg/mL (≈ 11.3 µM)	7.81 µg/mL (≈ 15.2 µM)		
CNc1cccc(NC(=O)N[C@@H]2N=C(c3ccccn3)c3ccccc3N(CC(=O)C(C)(C)COC(C)=O)C2=O)c1 [TR2-A crystalline]	4190 µg/mL	730 µg/mL	218 µg/mL	56 µg/mL	47.2 µg/mL	51 µg/mL	45.4 µg/mL									
Cc1cccc(NC(=O)N[C@@H]2N=C(c3ccccc3)c3ccccc3N(CC(=O)c3ccccc3C)C2=O)c1 [YM022, reference compound]															completely inhibited	Affinity at rat brain CCK2 receptors (rat brain CCK2 receptors): subnanomolar; Affinity at rat brain CCK2 receptors relative to rat pancreatic CCK1 receptors (rat brain CCK2 receptors): more than two orders of magnitude higher; IC50 (CCK2 (human) [6]): 0.55 nM; Kb (CCK2 (human) [6]): 0.68 nM; Aqueous solubility [8]: low
